Data published in patent US8106055B2, “Substituted amide compounds” (Gruenenthal GmbH, priority 2007, dated 2012).
Where two headings read alike, the source gives them in different places.

Tests used:
[1] = target: T1, serotonin (5-HT) reuptake (Rattus norvegicus, UniProt P31652); experiment: Inhibition of serotonin (5HT) reuptake in synaptosomes from rat brain; assay type: biochemical; details: test concentration of 10 μM; read-out: 5-HT (inhibition of reuptake of serotonin, % inhibition)
T1 construct: synaptosomes are freshly isolated from areas of the rat brain; from tissue; host or cells: rat brain synaptosomes (P2 fraction)
T1 sequence (P31652 whole entry): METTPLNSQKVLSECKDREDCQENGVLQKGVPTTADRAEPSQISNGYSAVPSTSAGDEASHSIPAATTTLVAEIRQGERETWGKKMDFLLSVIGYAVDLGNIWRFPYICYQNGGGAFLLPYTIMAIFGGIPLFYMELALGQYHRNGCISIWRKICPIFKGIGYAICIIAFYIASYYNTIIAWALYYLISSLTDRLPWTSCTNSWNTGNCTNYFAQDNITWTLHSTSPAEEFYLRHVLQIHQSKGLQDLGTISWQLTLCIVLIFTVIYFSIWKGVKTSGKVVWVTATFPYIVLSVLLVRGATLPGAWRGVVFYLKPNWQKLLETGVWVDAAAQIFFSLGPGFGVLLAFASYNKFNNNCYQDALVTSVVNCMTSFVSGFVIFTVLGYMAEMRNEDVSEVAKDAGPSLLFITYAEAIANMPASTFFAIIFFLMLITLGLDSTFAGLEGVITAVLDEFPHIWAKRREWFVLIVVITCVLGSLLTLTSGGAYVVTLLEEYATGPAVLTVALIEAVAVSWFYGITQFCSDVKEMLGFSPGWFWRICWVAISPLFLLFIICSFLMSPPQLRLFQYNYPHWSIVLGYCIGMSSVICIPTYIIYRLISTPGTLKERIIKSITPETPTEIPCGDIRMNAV
Method in brief: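 Compounds screened at 10 μM and reported as percent inhibition of serotonin uptake. Uptake measured in a freshly prepared P2 synaptosomal fraction from rat brain.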

[2] = target: T2, human bradykinin 1 receptor (B1R) (Homo sapiens, UniProt P46663); experiment: Functional investigation on the human bradykinin 1 receptor (B1R), Ca2+ FLIPR assay in CHO K1 hB1R cells; assay type: cell-based
T2 construct: expressed in transfected cells; host or cells: CHO K1 cells
T2 sequence (P46663 1-353): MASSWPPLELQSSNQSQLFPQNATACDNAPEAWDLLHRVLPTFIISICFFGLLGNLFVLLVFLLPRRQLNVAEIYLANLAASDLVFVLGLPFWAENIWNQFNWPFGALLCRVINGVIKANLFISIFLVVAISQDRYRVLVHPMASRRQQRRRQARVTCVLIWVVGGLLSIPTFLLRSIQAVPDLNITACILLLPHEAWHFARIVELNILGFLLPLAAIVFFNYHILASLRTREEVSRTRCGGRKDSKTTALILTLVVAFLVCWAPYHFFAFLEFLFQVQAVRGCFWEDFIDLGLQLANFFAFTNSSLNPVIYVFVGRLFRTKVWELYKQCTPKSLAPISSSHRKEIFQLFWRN
Method in brief: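 Fluo-4 Ca2+ readout, peak fluorescence. Stable CHO K1 transfectants; compound pre-incubated 10-20 min, then EC80 agonist—Lys-Des-Arg9-BK for hB1R, Des-Arg9-BK for rB1R. % inhibition vs maximal inhibition; IC50 from multiple concentrations, duplicate/triplicate, ≥2 independent runs.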

[3] = CHO-K1, B1R antagonism human, test substance 10 μM, Ca2+ FLIPR, CHO K1 hB1R cells, read-out: B1R Ant. h [10 μM] % Inhibition
[4] = CHO-K1, read-out: B1R Ant. h [10 μM] % Inhibition

Row | Compound | inhibition at 10 µM [1] [%] | inhibition at 10 µM [2, 3] [%] | inhibition at 10 µM [2, 4] [%] | B1R Ant. h [10 μM] % Inhibition ([2]; B1R antagonism human, test substance 10 μM, Ca2+ FLIPR, CHO K1 hB1R cells) [%]
1 | COc1cc(C)c(S(=O)(=O)N2CCN(CCOCC(=O)NC3CCC(C(c4cccc(F)c4)N(C)C)CC3)CC2)c(C)c1C (stereo not drawn) [Example 76, N-(4-((dimethylamino)(3-fluorophenyl)methyl)cyclohexyl)-2-(2-(4-(4-methoxy-2,3,6-trimethylphenylsulfonyl)piperazin-1-yl)ethoxy)acetamide] | 96 | 52 |  | 
2 | CN(C)C(c1cccs1)C1CCC(CNC(=O)COCCN(C)S(=O)(=O)c2ccc(F)cc2)CC1 (stereo not drawn) [Example 56, N-((4-((dimethylamino)(thiophen-2-yl)methyl)cyclohexyl)methyl)-2-(2-(4-fluoro-N-methylphenylsulfonamido)ethoxy)acetamide] | 100 |  | 22 | 
3 | COc1cc(C)c(S(=O)(=O)N2CCC(OCC(=O)NC3CCC(C(c4cccs4)N(C)C)CC3)CC2)c(C)c1C (stereo not drawn) [Example 1, N-(4-((dimethylamino)(thiophen-2-yl)methyl)cyclohexyl)-2-(1-(4-methoxy-2,3,6-trimethylphenylsulfonyl)piperidin-4-yloxy)acetamide] | 94 | 46 |  | 
4 | COc1cc(C)c(S(=O)(=O)N2CCN(CCOCC(=O)NCC3CCC(C(c4ccccc4)N(C)C)CC3)CC2)c(C)c1C (stereo not drawn) [Example 61, N-((4-((dimethylamino)(phenyl)methyl)cyclohexyl)methyl)-2-(2-(4-(4-methoxy-2,3,6-trimethylphenylsulfonyl)piperazin-1-yl)ethoxy)acetamide] | 95 | 63 |  | 
5 | Cc1cc(C)c(S(=O)(=O)N(C)CCOCC(=O)NCC2CCC(C(c3cccs3)N(C)C)CC2)c(C)c1 (stereo not drawn) [Example 57, N-((4-((dimethylamino)(thiophen-2-yl)methyl)cyclohexyl)methyl)-2-(2-(N,2,4,6-tetramethylphenylsulfonamido)ethoxy)acetamide] | 101 | 82 |  | 
6 | CN(C)C(c1cccs1)C1CCC(NC(=O)COC2CCCN(S(=O)(=O)c3ccccc3)C2)CC1 (stereo not drawn) [Example 42, N-(4-((dimethylamino)(thiophen-2-yl)methyl)cyclohexyl)-2-(1-(phenylsulfonyl)piperidin-3-yloxy)acetamide] | 91 |  | -14 | 
7 | COc1cc(C)c(S(=O)(=O)N2CCC(OCC(=O)NCC3CCC(C(c4cccs4)N(C)C)CC3)C2)c(C)c1 (stereo not drawn) [Example 86, N-((4-((dimethylamino)(thiophen-2-yl)methyl)cyclohexyl)methyl)-2-(1-(4-methoxy-2,6-dimethylphenylsulfonyl)pyrrolidin-3-yloxy)acetamide] | 96 | 98 |  | 
8 | COc1ccc(S(=O)(=O)N(C)CCOCC(=O)NC2CCC(C(c3cccs3)N(C)C)CC2)cc1 (stereo not drawn) [Example 73, N-(4-((dimethylamino)(thiophen-2-yl)methyl)cyclohexyl)-2-(2-(4-methoxy-N-methylphenylsulfonamido)ethoxy)acetamide] | 77 | 11 |  | 
9 | COc1ccc(S(=O)(=O)N2Cc3ccccc3CC2COCC(=O)NC2CCC(C(c3ccccc3)N(C)C)CC2)cc1 (stereo not drawn) [Example 38, N-(4-((dimethylamino)(phenyl)methyl)cyclohexyl)-2-((2-(4-methoxyphenylsulfonyl)-1,2,3,4-tetrahydroisoquinolin-3-yl)methoxy)acetamide] | 61 | 45 |  | 
10 | CN(C)C(c1cccs1)C1CCC(NC(=O)COCCN(C)S(=O)(=O)c2ccc(Cl)cc2)CC1 (stereo not drawn) [Example 83, 2-(2-(4-chloro-N-methylphenylsulfonamido)ethoxy)-N-(4-((dimethylamino) (thiophen-2-yl)methyl)cyclohexyl)acetamide] | 89 | 7 |  | 
11 | COc1cc(C)c(S(=O)(=O)N2CCC(CCOCC(=O)NCCC3CCC(C(c4cccs4)N(C)C)CC3)CC2)c(C)c1C (stereo not drawn) [Example 75, N-(2-(4-((dimethylamino)(thiophen-2-yl)methyl)cyclohexyl)ethyl)-2-(2-(1-(4-methoxy-2,3,6-trimethylphenylsulfonyl)piperidin-4-yl)ethoxy)acetamide] | 96 | 15 |  | 
12 | COc1ccc(S(=O)(=O)N2CCCCC2COCC(=O)NCC2CCC(C(c3ccccc3)N(C)C)CC2)cc1 (stereo not drawn) [Example 88, N-((4-((dimethylamino)(phenyl)methyl)cyclohexyl)methyl)-2-((1-(4-methoxyphenylsulfonyl)piperidin-2-yl)methoxy)acetamide] | 95 | 80 |  | 
13 | CN(C)C(c1ccccc1)C1CCC(CNC(=O)COCCN(C)S(=O)(=O)c2ccc(OC(F)(F)F)cc2)CC1 (stereo not drawn) [Example 53, N-((4-((dimethylamino)(phenyl)methyl)cyclohexyl)methyl)-2-(2-(N-methyl-4-(trifluoromethoxy)phenylsulfonamido)ethoxy)acetamide] | 92 | 19 |  | 
14 | COc1ccc(S(=O)(=O)N2CCCC2COCC(=O)NCCC2CCC(C(c3cccs3)N(C)C)CC2)cc1 (stereo not drawn) [Example 77, N-(2-(4-((dimethylamino)(thiophen-2-yl)methyl)cyclohexyl)ethyl)-2-((1-(4-methoxyphenylsulfonyl)pyrrolidin-2-yl)methoxy)acetamide] | 98 | 41 |  | 
15 | COc1ccc(S(=O)(=O)N2CCCCC2COCC(=O)NCC2CCC(C(c3cccs3)N(C)C)CC2)cc1 (stereo not drawn) [Example 45, N-((4-((dimethylamino)(thiophen-2-yl)methyl)cyclohexyl)methyl)-2-((1-(4-methoxyphenylsulfonyl)piperidin-2-yl)methoxy)acetamide] | 91 | 70 |  | 
16 | COc1cc(C)c(S(=O)(=O)N(C)CCOCC(=O)NCC2CCC(C(c3cccs3)N(C)C)CC2)c(C)c1 (stereo not drawn) [Example 69, N-((4-((dimethylamino)(thiophen-2-yl)methyl)cyclohexyl)methyl)-2-(2-(4-methoxy-N,2,6-trimethylphenylsulfonamido)ethoxy)acetamide] | 86 | 104 |  | 
17 | CCN(CCOCC(=O)NC1CCC(C(c2cccs2)N(C)C)CC1)S(=O)(=O)c1c(C)cc(OC)c(C)c1C (stereo not drawn) [Example 59, N-(4-((dimethylamino)(thiophen-2-yl)methyl)cyclohexyl)-2-(2-(N-ethyl-4-methoxy-2,3,6-trimethylphenylsulfonamido)ethoxy)acetamide] | 92 | 56 |  | 
18 | Cc1cc(C)c(S(=O)(=O)N2CCC(OCC(=O)NC3CCC(C(c4ccccc4)N(C)C)CC3)C2)c(C)c1 (stereo not drawn) [Example 64, N-(4-((dimethylamino)(phenyl)methyl)cyclohexyl)-2-(1-(mesitylsulfonyl)pyrrolidin-3-yloxy)acetamide] | 83 | 60 |  | 
19 | Cc1ccc(S(=O)(=O)N(C)CCOCC(=O)NCCC2CCC(C(c3cccs3)N(C)C)CC2)cc1 (stereo not drawn) [Example 82, N-(2-(4-((dimethylamino)(thiophen-2-yl)methyl)cyclohexyl)ethyl)-2-(2-(N,4-dimethylphenylsulfonamido)ethoxy)acetamide] | 85 | -2 |  | 
20 | CN(C)C(c1cccs1)C1CCC(CNC(=O)COC2CCN(S(=O)(=O)c3ccc(Cl)cc3)C2)CC1 (stereo not drawn) [Example 54, 2-(1-(4-chlorophenylsulfonyl)pyrrolidin-3-yloxy)-N-((4-((dimethylamino)(thiophen-2-yl)methyl)cyclohexyl)methyl)acetamide] | 84 | 10 |  | 
21 | COc1cc(C)c(S(=O)(=O)N(C)CCOCC(=O)NC2CCC(C(c3ccccc3)N(C)C)CC2)c(C)c1C (stereo not drawn) [Example 80, N-(4-((dimethylamino) (phenyl)methyl)cyclohexyl)-2-(2-(4-methoxy-N,2,3,6-tetramethylphenylsulfonamido)ethoxy)acetamide] | 84 |  |  | 98
22 | COc1ccc(S(=O)(=O)N2CCCCC2CCOCC(=O)NCC2CCC(C(c3cccs3)N(C)C)CC2)cc1 (stereo not drawn) [Example 90, N-((4-((dimethylamino)(thiophen-2-yl)methyl)cyclohexyl)methyl)-2-(2-(1-(4-methoxyphenylsulfonyl)piperidin-2-yl)ethoxy)acetamide] | 94 | 49 |  | 
23 | COc1ccc(S(=O)(=O)N2Cc3ccccc3CC2COCC(=O)NC2CCC(C(c3cccs3)N(C)C)CC2)cc1 (stereo not drawn) [Example 47, N-(4-((dimethylamino)(thiophen-2-yl)methyl)cyclohexyl)-2-((2-(4-methoxyphenylsulfonyl)-1,2,3,4-tetrahydroisoquinolin-3-yl)methoxy)acetamide] | 98 | 24 |  | 
24 | CN(C)C(c1ccccc1)C1CCC(CNC(=O)COC2CCN(S(=O)(=O)c3ccc(Cl)cc3Cl)C2)CC1 (stereo not drawn) [Example 67, 2-(1-(2,4-dichlorophenylsulfonyl)pyrrolidin-3-yloxy)-N-((4-((dimethylamino)(phenyl)methyl)cyclohexyl)methyl)acetamide] | 87 |  | 48 | 
